Experimental data as given in the NIST ThermoML archive (doi:10.1021/je7000667).

Assay: xn = mol fraction of the nth substance listed
Details: Gas, Burnett expansion method

FC(C(F)(F)F)C(F)(F)F [1,1,1,2,3,3,3-heptafluoropropane] + FCF
Details | mass density [kg/m3]
310 K, 149.52 kPa, x2 = 0.2648 | 8.291
310 K, 189.1 kPa, x2 = 0.5155 | 8.255
310 K, 204.07 kPa, x2 = 0.2648 | 11.439
310 K, 207.98 kPa, x2 = 0.7809 | 6.449
310 K, 258.01 kPa, x2 = 0.5155 | 11.389
310 K, 277.27 kPa, x2 = 0.2648 | 15.782
310 K, 284.06 kPa, x2 = 0.7809 | 8.897
310 K, 350.46 kPa, x2 = 0.5155 | 15.712
310 K, 374.4 kPa, x2 = 0.2648 | 21.774
310 K, 386.48 kPa, x2 = 0.7809 | 12.274
310 K, 473.07 kPa, x2 = 0.5155 | 21.676
310 K, 501.26 kPa, x2 = 0.2648 | 30.041
310 K, 523.12 kPa, x2 = 0.7809 | 16.934
310 K, 633.01 kPa, x2 = 0.5155 | 29.904
310 K, 662.59 kPa, x2 = 0.2648 | 41.446
310 K, 702.73 kPa, x2 = 0.7809 | 23.363
310 K, 836.5 kPa, x2 = 0.5155 | 41.255
310 K, 932.7 kPa, x2 = 0.7809 | 32.232
310 K, 1221.3 kPa, x2 = 0.7809 | 44.426
310 K, 1562.6 kPa, x2 = 0.7809 | 61.291
320 K, 154.66 kPa, x2 = 0.2648 | 8.285
320 K, 195.61 kPa, x2 = 0.5155 | 8.251
320 K, 211.27 kPa, x2 = 0.2648 | 11.431
320 K, 215.08 kPa, x2 = 0.7809 | 6.445
320 K, 267.14 kPa, x2 = 0.5155 | 11.383
320 K, 287.44 kPa, x2 = 0.2648 | 15.771
320 K, 294.06 kPa, x2 = 0.7809 | 8.892
320 K, 363.38 kPa, x2 = 0.5155 | 15.704
320 K, 388.88 kPa, x2 = 0.2648 | 21.758
320 K, 400.53 kPa, x2 = 0.7809 | 12.268
320 K, 491.5 kPa, x2 = 0.5155 | 21.665
320 K, 522.08 kPa, x2 = 0.2648 | 30.019
320 K, 543.05 kPa, x2 = 0.7809 | 16.926
320 K, 659.5 kPa, x2 = 0.5155 | 29.889
320 K, 693.04 kPa, x2 = 0.2648 | 41.416
320 K, 731.28 kPa, x2 = 0.7809 | 23.351
320 K, 875.19 kPa, x2 = 0.5155 | 41.235
320 K, 904.5 kPa, x2 = 0.2648 | 57.14
320 K, 974.36 kPa, x2 = 0.7809 | 32.216
320 K, 1142.5 kPa, x2 = 0.5155 | 56.888
320 K, 1282.2 kPa, x2 = 0.7809 | 44.404
320 K, 1653.9 kPa, x2 = 0.7809 | 61.261
320 K, 2072.7 kPa, x2 = 0.7809 | 84.517
330 K, 159.77 kPa, x2 = 0.2648 | 8.281
330 K, 202.1 kPa, x2 = 0.5155 | 8.247
330 K, 218.42 kPa, x2 = 0.2648 | 11.425
330 K, 222.17 kPa, x2 = 0.7809 | 6.442
330 K, 276.22 kPa, x2 = 0.5155 | 11.377
330 K, 297.52 kPa, x2 = 0.2648 | 15.763
330 K, 303.95 kPa, x2 = 0.7809 | 8.888
330 K, 376.17 kPa, x2 = 0.5155 | 15.696
330 K, 403.18 kPa, x2 = 0.2648 | 21.748
330 K, 414.44 kPa, x2 = 0.7809 | 12.262
330 K, 509.64 kPa, x2 = 0.5155 | 21.654
330 K, 542.59 kPa, x2 = 0.2648 | 30.004
330 K, 562.74 kPa, x2 = 0.7809 | 16.917
330 K, 685.57 kPa, x2 = 0.5155 | 29.874
330 K, 722.83 kPa, x2 = 0.2648 | 41.396
330 K, 759.44 kPa, x2 = 0.7809 | 23.34
330 K, 913.06 kPa, x2 = 0.5155 | 41.214
330 K, 948.75 kPa, x2 = 0.2648 | 57.112
330 K, 1015.2 kPa, x2 = 0.7809 | 32.2
330 K, 1198.4 kPa, x2 = 0.5155 | 56.859
330 K, 1218.7 kPa, x2 = 0.2648 | 78.795
330 K, 1341.7 kPa, x2 = 0.7809 | 44.382
330 K, 1540 kPa, x2 = 0.5155 | 78.443
330 K, 1742.4 kPa, x2 = 0.7809 | 61.23
330 K, 2206.8 kPa, x2 = 0.7809 | 84.475
340 K, 164.86 kPa, x2 = 0.2648 | 8.277
340 K, 208.54 kPa, x2 = 0.5155 | 8.243
340 K, 225.54 kPa, x2 = 0.2648 | 11.42
340 K, 229.21 kPa, x2 = 0.7809 | 6.439
340 K, 285.24 kPa, x2 = 0.5155 | 11.372
340 K, 307.52 kPa, x2 = 0.2648 | 15.755
340 K, 313.78 kPa, x2 = 0.7809 | 8.884
340 K, 388.85 kPa, x2 = 0.5155 | 15.688
340 K, 417.35 kPa, x2 = 0.2648 | 21.737
340 K, 428.24 kPa, x2 = 0.7809 | 12.256
340 K, 527.64 kPa, x2 = 0.5155 | 21.643
340 K, 562.85 kPa, x2 = 0.2648 | 29.989
340 K, 582.27 kPa, x2 = 0.7809 | 16.909
340 K, 711.31 kPa, x2 = 0.5155 | 29.859
340 K, 752.13 kPa, x2 = 0.2648 | 41.375
340 K, 787.28 kPa, x2 = 0.7809 | 23.328
340 K, 950.24 kPa, x2 = 0.5155 | 41.194
340 K, 991.76 kPa, x2 = 0.2648 | 57.084
340 K, 1055.4 kPa, x2 = 0.7809 | 32.184
340 K, 1252.9 kPa, x2 = 0.5155 | 56.831
340 K, 1283.1 kPa, x2 = 0.2648 | 78.756
340 K, 1399.9 kPa, x2 = 0.7809 | 44.36
340 K, 1614 kPa, x2 = 0.2648 | 108.656
340 K, 1621.4 kPa, x2 = 0.5155 | 78.404
340 K, 1828.5 kPa, x2 = 0.7809 | 61.2
340 K, 2042.8 kPa, x2 = 0.5155 | 108.166
340 K, 2336.2 kPa, x2 = 0.7809 | 84.433
350 K, 169.93 kPa, x2 = 0.2648 | 8.273
350 K, 214.96 kPa, x2 = 0.5155 | 8.239
350 K, 232.62 kPa, x2 = 0.2648 | 11.414
350 K, 236.22 kPa, x2 = 0.7809 | 6.436
350 K, 294.24 kPa, x2 = 0.5155 | 11.366
350 K, 317.47 kPa, x2 = 0.2648 | 15.747
350 K, 323.59 kPa, x2 = 0.7809 | 8.879
350 K, 401.46 kPa, x2 = 0.5155 | 15.68
350 K, 431.39 kPa, x2 = 0.2648 | 21.726
350 K, 441.97 kPa, x2 = 0.7809 | 12.25
350 K, 545.49 kPa, x2 = 0.5155 | 21.633
350 K, 582.86 kPa, x2 = 0.2648 | 29.974
350 K, 601.65 kPa, x2 = 0.7809 | 16.901
350 K, 736.76 kPa, x2 = 0.5155 | 29.844
350 K, 780.99 kPa, x2 = 0.2648 | 41.355
350 K, 814.82 kPa, x2 = 0.7809 | 23.317
350 K, 986.94 kPa, x2 = 0.5155 | 41.173
350 K, 1033.9 kPa, x2 = 0.2648 | 57.055
350 K, 1095 kPa, x2 = 0.7809 | 32.168
350 K, 1306.5 kPa, x2 = 0.5155 | 56.803
350 K, 1345.8 kPa, x2 = 0.2648 | 78.717
350 K, 1457.2 kPa, x2 = 0.7809 | 44.338
350 K, 1700.8 kPa, x2 = 0.5155 | 78.365
350 K, 1709.1 kPa, x2 = 0.2648 | 108.602
350 K, 1912.8 kPa, x2 = 0.7809 | 61.169
350 K, 2092.9 kPa, x2 = 0.2648 | 149.834
350 K, 2162.7 kPa, x2 = 0.5155 | 108.113
350 K, 2462 kPa, x2 = 0.7809 | 84.391
350 K, 2654.5 kPa, x2 = 0.5155 | 149.152
360 K, 174.96 kPa, x2 = 0.2648 | 8.269
